Results reported in PMC6197257 (Scientific Reports, 2018).

Tests used:
anti-3MGA MAb = experiment: competitive ELISA cross-reactivity of anti-3MGA MAb; type: binding, mouse; conditions: CR = IC50 for 3MGA / IC50 for compound x 100, 3MGA calibrated as 100%
Protocol: To activate the hapten 3MGA for the preparation of anti-3MGA MAb, the 3MGA-KLH conjugate was synthesized by using a model based on the carbodiimide method with both EDC and NHS reagents. 3MGA-HSA was also prepared using the same method, and was used for ELISA. We also evaluated the hapten number of the 3MGA-HSA conjugate by MALDI-TOF MS analysis. […] The MAb was developed by using the same methods described in our previous study. Hybridomas secreting antibodies recognizing 3MGA were selected by ELISA and then subcloned 4 times by the limited dilution method. […] The heavy chain of the obtained MAb was classified using a Calbiochem mouse hybridoma subisotyping kit (EMD Biosciences, Darmstadt, Germany), whereas the light chain was estimated using an IsoQuick^TM mouse monoclonal isotyping strip (Sigma) according to the manufacturer’s instructions.
3MGA-HSA (1 µg/ml in 50 mM carbonate buffer, pH 9.6) was added into a 96-well plate (Nagel Nunc, Penfield, NY, USA) (100 µl/well), and incubated at 37 °C for 1 h. After the removal of 3MGA-HSA, the wells were washed with 200 µl/well PBS containing 0.05% Tween 20 (T-PBS) for 3 times. The wells were incubated with 300 µl/well of 5% skim milk (Morinaga-milk, Tokyo, Japan) at 4 °C overnight. […] After the wells were washed with T-PBS 3 times, HRP-labeled goat anti-mouse IgG (Fc specific) antibody (1:1,000 dilution with T-PBS) was added into the wells (100 µl/well), and the plate was incubated at 37 °C for 1 h. Next, the wells were washed with T-PBS 3 times, the substrate solution (0.006% H2O2 in 200 mM citrate buffer, pH 4.0/H2O/0.6 mg/ml ABTS 10:9:1) was added into the wells (100 µl/well), and incubated at room temperature for 15 min.

CYP2C9 = tested on: CYP2C9; parameters: method as in PMID 26712778, PMID 22943175; conditions: competitive inhibitor; cited from earlier work
[1] = pharmacokinetics in EHBRs orally treated with GA (200 mg/kg), LC-MS/MS; type: in vivo, Eisai Hyperbilirubinemia rats (EHBRs); conditions: Eisai Hyperbilirubinemia rats (EHBR), rat, plasma; female EHBRs, GA 200 mg/kg oral, 12 h; read-out: plasma concentration 12 h after GA treatment
Protocol: Female SD rats or EHBRs (9-week-old) were anesthetized by an intraperitoneal (i.p.) injection of urethane (1 g/kg) and their jugular veins were exposed. […] Aliquots (10 µl) of plasma or urine were mixed with 20 µl of subtilisin (0.91 U/ml), incubated at 37 °C for 30 min, followed by the addition of 70 µl of astragalloside IV solution (1 µg/ml in ethanol containing 0.5% formic acid), and kept at −20 °C for 30 min.

[2] = concentrations in pooled plasma of EHBRs 12 h after oral GA (200 mg/kg); type: in vivo; conditions: Eisai Hyperbilirubinemia rats (EHBR), rat
Protocol: Three female and three male EHBRs (9-week-old, respectively) were injected with urethane (1 g/kg, i.p.), and orally treated with an aqueous GA aqueous suspension (200 mg/kg in 1% CMC). Twelve h after the treatment, blood was collected from the abdominal vena cava, and the plasma samples of each sex rat were pooled.
LC-ESI(+)MS/MS analysis was conducted at the following conditions: column, Scherzo SM-C18 (3 μm, 3 mm i.d. ×100 mm, Imtakt, Kyoto, Japan); mobile phase, (A) 5 mM AcNH4, (B) 125 mM AcNH4/acetonitrole 1:4, at a flow rate of 0.3 ml/min, with the following gradient profile: A:B = 50:50–0:100 (0–3 min) and 0:100 (3–10 min); compound 1 (5.8 min), astragaloside IV (3.0 min), GA (8.7 min); the transitions monitored were the same as described in the previous section. Linear regressions over the concentration range 0.08–2 µM for compound 1 and 3.2 nM–2 µM for GA were examined using the peak-area ratio of the compounds to their internal standards and the least-squares method (r^2 > 0.98).

CYP3A4 = tested on: CYP3A4; parameters: method as in PMID 26712778, PMID 22943175; conditions: competitive inhibitor; cited from earlier work
rat kidney slices = experiment: uptake by rat kidney slices; type: in vitro ADME; conditions: pooled plasma of female EHBRs, pH 5.5, 2 h
Protocol: Female SD rats (9-week-old) were treated with urethane (1 g/kg, i.p.), and their kidneys were collected. After removal of the capsule, the kidneys were sliced at approximately 0.5-mm thickness in the frontal section of the organ, using a tissue slicer (Natsume Seisakusyo, Tokyo, Japan) and then cut at the renal hilus into two halves. The slices were pre-incubated at either 4 or 37 °C for 15 min in 24-well plates with 0.3 ml of the incubation medium (137 mM NaCl, 5.4 mM KCl, 0.95 mM CaCl2, 0.81 mM MgSO4, 0.44 mM KH2PO4, 0.25 mM Na2HPO4, 5.5 mM glucose, 10 mM MES, adjusted to pH 5.5). Five ml of pooled female EHBR plasma samples was lyophilized, and dissolved in 5 ml of the incubation medium. […] After washing with PBS three times, the kidney slices were homogenated in PBS using sonication, and the concentrations of protein were measured as mentioned above. […]
LC-ESI(+)MS/MS analysis was conducted at the following conditions: column, Scherzo SM-C18 (3 μm, 3 mm i.d. ×100 mm, Imtakt, Kyoto, Japan); mobile phase, (A) 5 mM AcNH4, (B) 125 mM AcNH4/acetonitrole 1:4, at a flow rate of 0.3 ml/min, with the following gradient profile: A:B = 50:50–0:100 (0–3 min) and 0:100 (3–10 min); compound 1 (5.8 min), astragaloside IV (3.0 min), GA (8.7 min); the transitions monitored were the same as described in the previous section. […]

CYP2C19 = tested on: CYP2C19; parameters: method as in PMID 26712778, PMID 22943175; conditions: competitive inhibitor; cited from earlier work

Structure (SMILES) | cross-reactivity of anti-3MGA MAb (anti-3MGA MAb) | further results
O=C1C[C@@H](c2ccc(O[C@@H]3O[C@H](CO)[C@@H](O)[C@H](O)[C@H]3O)cc2)Oc2cc(O)ccc21 [liquiritin] | less than 0.02% | –
CC1(C)[C@@H](O)CC[C@]2(C)[C@H]3C(=O)C=C4[C@@H]5C[C@@](C)(C(=O)O)CC[C@]5(C)CC[C@@]4(C)[C@]3(C)CC[C@@H]12 [GA, 18β-glycyrrhetinic acid] | 1.04% | IC50 (CYP2C9): 33 to 43 µM; concentration at 12 h [1]: 5.9 µM; concentration at 12 h ([2]; female, read-out: concentration in pooled plasma, female EHBRs): 7 µM; concentration at 12 h ([2]; male, read-out: concentration in pooled plasma, male EHBRs): 3.2 µM; IC50 (CYP3A4): 8.2 to 14 µM; uptake by kidney slices at 37 °C compared with 4 °C (rat kidney slices): similar; IC50 (CYP2C19): 41 to 74 µM
CC1(C)[C@@H](O[C@H]2O[C@H](C(=O)O)[C@@H](O)[C@H](O)[C@H]2O[C@@H]2O[C@H](C(=O)O)[C@@H](O)[C@H](O)[C@H]2O)CC[C@]2(C)[C@H]3C(=O)C=C4[C@@H]5C[C@@](C)(C(=O)O)CC[C@]5(C)CC[C@@]4(C)[C@]3(C)CC[C@@H]12 [GL, glycyrrhizin] | 0.22% | –
C[C@@]12C[C@@]3(O)O[C@@H](O1)[C@]1(COC(=O)c4ccccc4)[C@H]3C[C@@]12O[C@@H]1O[C@H](CO)[C@@H](O)[C@H](O)[C@H]1O [paeoniflorin] | less than 0.02% | –
CC(C)=CCC[C@](C)(O[C@@H]1O[C@H](CO[C@@H]2O[C@H](CO)[C@@H](O)[C@H](O)[C@H]2O)[C@@H](O)[C@H](O)[C@H]1O)[C@H]1CC[C@]2(C)[C@@H]1[C@H](O)C[C@@H]1[C@@]3(C)CC[C@H](O[C@@H]4O[C@H](CO)[C@@H](O)[C@H](O)[C@H]4O[C@@H]4O[C@H](CO)[C@@H](O)[C@H](O)[C@H]4O)C(C)(C)[C@@H]3CC[C@]12C [ginsenoside Rb1] | less than 0.02% | –
C[C@]1(C(=O)O)CC[C@]2(C)CC[C@]3(C)C(=CC(=O)[C@@H]4[C@@]5(C)CC[C@H](O[C@@H]6O[C@H](C(=O)O)[C@@H](O)[C@H](O)[C@H]6O[C@@H]6O[C@H](C(=O)O)[C@@H](O)[C@H](O)[C@H]6O)[C@](C)(CO)[C@@H]5CC[C@]43C)[C@@H]2C1 [licorice saponin G2] | less than 0.02% | –
C[C@H]1O[C@@H](O[C@H]2CC[C@@]3(C)[C@@H](CC[C@]4(C)[C@@H]3C=C[C@]35OC[C@@]6(CCC(C)(C)C[C@H]63)[C@@H](O)C[C@]54C)[C@]2(C)CO)[C@H](O)[C@@H](O[C@@H]2O[C@H](CO)[C@@H](O)[C@H](O)[C@H]2O)[C@H]1O [saikosaponin a] | less than 0.02% | –
